Assay results: patent US12570666B2, “Furoindazole derivatives” (Bayer Aktiengesellschaft, priority 2019, dated 2026)

Target: T1, human GPR84 receptor (Homo sapiens, UniProt Q9NQS5)
T1 construct: frozen aliquots prepared by acCELLerate; host or cells: CHO-K1
Assay: cAMP HTRF assay for identification of cellular GPR84 antagonists
Assay type: cell-based
Settings: CHO-K1 cells stably expressing human GPR84; Forskolin + agonist 6-OAU (EC80); average or median values
Procedure, shortened: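 IC50 came from 4-parameter fits over 20 μM–0.07 nM (11 points, duplicate), normalized between DMSO (0%) and agonist-free (100% inhibition) wells. Readout: cAMP-d2/Eu-cryptate HTRF in hGPR84 CHO-K1 cells given forskolin plus agonist, compound preincubated 30 min at room temperature.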

T1 sequence (Q9NQS5 whole entry): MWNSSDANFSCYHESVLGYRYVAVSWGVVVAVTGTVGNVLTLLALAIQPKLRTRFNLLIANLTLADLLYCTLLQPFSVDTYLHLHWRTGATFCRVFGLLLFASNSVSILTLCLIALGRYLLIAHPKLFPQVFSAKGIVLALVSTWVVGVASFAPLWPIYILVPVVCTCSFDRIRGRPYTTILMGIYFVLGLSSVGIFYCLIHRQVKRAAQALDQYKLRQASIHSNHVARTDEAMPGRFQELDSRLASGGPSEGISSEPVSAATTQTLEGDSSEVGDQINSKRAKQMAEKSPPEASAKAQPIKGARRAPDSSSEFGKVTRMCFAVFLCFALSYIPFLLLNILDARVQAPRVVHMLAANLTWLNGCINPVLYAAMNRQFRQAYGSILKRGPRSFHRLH

IC50 [nM]	SMILES
180	Cc1c(C(=O)NC[C@@H]2COCCO2)oc2c1-c1nn(C[C@@H]3CN(C)CCO3)cc1CC2 [Example 104, N[(2R)-1,4-dioxan-2-ylmethyl]-8-methyl-2-{[(2S)-4-methylmorpholin-2-yl]methyl}-4,5-dihydro-2H-furo[2,3-g]indazole-7-carboxamide]
940	Cc1c(C(=O)NC[C@H]2COCCO2)oc2c1-c1nn(Cc3ccccn3)cc1C1(CCC1)C2 [Example 133]
110	CC(=O)N1CC(F)(Cn2cc3c(n2)-c2c(oc(C(=O)NC[C@@H]4CCCO4)c2C)CC3)C1 [Example 165, 2-[(1-acetyl-3-fluoroazetidin-3-yl)methyl]-8-methyl-N-[(2S)-tetrahydrofuran-2-ylmethyl]-4,5-dihydro-2H-furo[2,3-g]indazole-7-carboxamide]
38	CC1(C)Cc2oc(C(=O)NC[C@@H]3CCCO3)c(C(F)(F)F)c2-c2nn(C[C@H]3COCCO3)cc21 [Example 268, 2-{[(2S)-1,4-dioxan-2-yl]methyl}-4,4-dimethyl-N-{[(2S)-oxolan-2-yl]methyl}-8-(trifluoromethyl)-4,5-dihydro-2H-furo[2,3-g]indazole-7-carboxamide]
5420	Cc1c(C(=O)Nc2cccnc2)oc2c1-c1nn(Cc3ccccn3)cc1CC2 [Example 41, 8-methyl-N-(pyridin-3-yl)-2-(pyridin-2-ylmethyl)-4,5-dihydro-2H-furo[2,3-g]indazole-7-carboxamide]
57	CC1(C)Cc2oc(C(=O)NC[C@@H]3COCCO3)c(C(F)(F)F)c2-c2nn(C[C@H]3COCCO3)cc21 [Example 267, N-{[(2R)-1,4-dioxan-2-yl]methyl}-2-{[(2S)-1,4-dioxan-2-yl]methyl}-4,4-dimethyl-8-(trifluoromethyl)-4,5-dihydro-2H-furo[2,3-g]indazole-7-carboxamide]
3	C[C@@H]1Cc2oc(C(=O)NCc3cnc(Cl)cn3)c(C(F)(F)F)c2-c2nn(C[C@H]3COCCO3)cc21 (single isomer, unassigned) [Example 323, (4R or 4S)—N-[(5-chloropyrazin-2-yl)methyl]-2-{[(2S)-1,4-dioxan-2-yl]methyl}-4-methyl-8-(trifluoromethyl)-4,5-dihydro-2H-furo[2,3-g]indazole-7-carboxamide]
140	Cc1c(C(=O)NC[C@@H]2CCCO2)oc2c1-c1nn(C[C@H]3CCOC3)cc1CC2 [Example 111, 8-methyl-N-[(2S)-tetrahydrofuran-2-ylmethyl]-2-[(3R)-tetrahydrofuran-3-ylmethyl]-4,5-dihydro-2H-furo[2,3-g]indazole-7-carboxamide]
3470	Cc1ccn(CCNC(=O)c2oc3c(c2C(F)(F)F)-c2nn(C[C@H]4COCCO4)cc2CC3)n1 [Example 234, 2-[(2S)-1,4-Dioxan-2-ylmethyl]-N-[2-(3-methyl-1H-pyrazol-1-yl)ethyl]-8-(trifluormethyl)-4,5-dihydro-2H-furo[2,3-g]indazol-7-carboxamide]
6	CC1Cc2oc(C(=O)NC[C@@H]3COCCO3)c(C(F)(F)F)c2-c2nn(C[C@H]3COCCO3)cc21 (mixture of isomers) [Example 254, (4±)-N-{[(2R)-1,4-dioxan-2-yl]methyl}-2-{[(2S)-1,4-dioxan-2-yl]methyl}-4-methyl-8-(trifluoromethyl)-4,5-dihydro-2H-furo[2,3-g]indazole-7-carboxamide]
136	O=C(NCc1cocn1)c1oc2c(c1C(F)(F)F)-c1nn(C[C@H]3COCCO3)cc1CC2 [Example 239, 2-[(2S)-1,4-Dioxan-2-ylmethyl]-N-(1,3-oxazol-4-ylmethyl)-8-(trifluormethyl)-4,5-dihydro-2H-furo[2,3-g]indazol-7-carboxamide]
151	CN1CCC(Cn2cc3c(n2)-c2c(oc(C(=O)NC[C@@H]4CCCO4)c2C(F)(F)F)CC3)CC1 [Example 308, 2-[(1-methylpiperidin-4-yl)methyl]-N-{[(2S)-oxolan-2-yl]methyl}-8-(trifluoromethyl)-4,5-dihydro-2H-furo[2,3-g]indazole-7-carboxamide]
